Entries after “also recorded” stand apart in the source; their conditions may differ. Read-outs that look alike come from different tables or passages of the source.

As usually defined, the EC50 is the concentration at which the effect is half-maximal.

For test [1], the system named is primary polyclonal human Vγ9Vδ2 T cells. Kind of test: TNFα release (cytokine release) assay. Type of test: cell-based. The conditions noted are these: for relative potency in words: TNFα release assay, comparison of the tested compounds. On the procedure: Cells (primary polyclonal human Vγ9Vδ2 T cells which have been expanded in vitro and stored frozen at day 12-15 of expansion) are thawed and rinsed twice and centrifuged. Upon elimination of supernatant and resuspension of cells, the cells are incubated for 24 h at 37° C. in the presence of IL2 100 IU/ml (final concentration). The cells are washed and centrifuged, following which the supernatant is eliminated and the cells are resuspended and adjusted to the adequate final concentration. The cells are added to the wells of a 96-well plate.
To one row of wells is added a standard dilution series of (R,S)-3-(bromomethyl)-3-butanol-1-yl-diphosphate (R,S-BrHPP). Compounds to be tested, in this case (E)-4-hydroxy-3-methyl-2-butenyl pyrophosphate ((E)-HDMAPP) and the HAngelylPP and HTiglylPP compounds of the Angelyl/Tiglyl phosphoester series are added to experimental wells, after several dilutions.
Full plates are incubated 24 hours at 37° C. for stimulation of the γδ cells with the test compound and reference compounds, in this case HAngelylPP and HTiglylPP, (R,S)—BrHPP and (E) —HDMAPP, as further described below. After this time, 100 μl of culture supernatant is taken for TNFα dosage. Measurement of the released TNFα dosage is performed as described by the manufacturer's instruction in the TNFα enzyme immunoassay kit (ref. 11121, Immunotech—Beckman Coulter). OD at 405 nm is read, the OD being proportional to the concentration of released TNFα in the culture supernatant. The data are processed with the Excel software to compare concentration of test compound versus concentration of TNFα and for the calculation of the EC50 for each test compound.
The bioactivity of the compound HAngelylPP was assessed using a TNFα release assay as described above. Compounds (R,S)—BrHPP and (E)-HDMAPP were included for purpose of comparison. […] As will be appreciated, any other suitable assays such as cell amplification may be used in assessing compounds.

A further test deals with γδ T cells. As to conditions: reported at best (Wilhelm et al., 2003); cited from earlier work.

For `CC(O)(CBr)CCOP(=O)(O)OP(=O)(O)O` (racemic) [(R,S)-BrHPP, (R,S)-3-(bromomethyl)-3-butanol-1-yl-diphosphate, reference compound], the EC50 in test [1] (Homo sapiens, T-cell, TNFα release, 24 hours stimulation at 37° C., relative screening test (FIG. 3), read-out: in vitro EC50) was 37.7 nM; in test [1] (Homo sapiens, T-cell, prior assays with calibrated cells using a (R,S)-BrHPP-standard composition, read-out: EC50) it was roughly 15 nM.

As for `NCCC(O)(P(=O)(O)O)P(=O)(O)O` [pamidronate], the “increase in γδ T cell count” value with γδ T cells is listed as no more than 2 fold.

Turning to “(E)-4-hydroxy-2-methylbut-2-enyl pyrophosphate [HTiglylPP]”, the “relative potency in words” value in test [1] was “highly potent”. For the same compound, the EC50 in test [1] (TNFα release, 24 hours stimulation at 37° C., relative screening test (FIG. 3), read-out: in vitro EC50) worked out at 15 nM.

For “(Z)-4-hydroxy-2-methylbut-2-enyl pyrophosphate [HAngelylPP]”, the “relative potency in words” value in test [1] is on record as “highly potent; also recorded: the most potent compound of those tested”.
